Results as given in US20220356170A1, “SREBP INHIBITOR COMPRISING A THIOPHENE CENTRAL RING” (Capulus Therapeutics, LLC, priority 2019, published 2022).
Values after ≈ are worked out from the molar mass of the structure shown.

How the values were obtained:
[1] = Kinetic solubility; assay type: physicochemical; details: aqueous buffer, kinetic from dmso stock, pH 7.4 buffer, room temperature, 1.0% DMSO
Protocol: Kinetic Solubility Procedure: A 10 mM stock solution of Compound 1 was prepared in DMSO, then 4 μL of the stock was added to a deep well plate containing 396 μL of pH 7.4 buffer. The sample plate was vortexed at 800 rpm for 24 h on thermomixer at room temperature. The plate was sealed well during the incubation process. The DMSO content in the sample was 1.0%. The concentration of Compound 1 in the final incubation was 100 μM. At the end of the incubation period, the sample plate was centrifuged at 4000 rpm for 10 min and analyzed in LC-UV against a calibration curve (CC).

[2] = Half-life in rat liver microsomes; assay type: in vitro ADME; details: read-out: Rat LM: Half life
Protocol: Half-life Human Microsomes: Compound 1 was evaluated for stability in human liver microsomes. A 10 mM stock solution of Compound 1 was prepared in DMSO and diluted with water: acetonitrile (1:1) to a concentration of 1 mM. A working concentration of 100 μM was prepared by further dilution with water: acetonitrile (1:1). To make the preincubation mixture, 2.5 μL of the diluted Compound 1 was combined with 75 μL of human liver microsomes at 3.33 mg/mL, and 85 μL of 100 mM potassium phosphate buffer, and this mixture pre-incubated for 10 min at 37° C. To make the 60 minute mixture without cofactor, 32.5 μL of the preincubation mixture was combined with 17.5 μL of 100 mM potassium phosphate buffer and incubated for 60 min at 37° C. […] To prepare the sample mixture to be evaluated, 25 μL incubation mixture was combined with 200 μL of acetonitrile containing internal standard and vortexed for 5 min at 1200 rpm, then centrifuged for 10 min at 4000 rpm. […] The sample mixture was evaluated by LC-MS/MS using 10 mM ammonium acetate with 0.1% FA as the aqueous mobile phase, and methanol as the organic mobile phase.
Half-life Rat and Mouse Microsomes: Compound 1 was evaluated in rat and mouse liver microsomes following a similar procedure as described above for human liver microsomes.

[3] = Log D, octanol/aqueous buffer partitioning; assay type: physicochemical; details: 1-octanol/aqueous buffer; 1-octanol/buffer
Protocol: Log D Procedure: The Log D of Compound 1 was evaluated by octanol/aqueous buffer partitioning. 500 μL of organic phase (1-octanol) was added to each well of a 2 mL deep well plate, followed by 500 μL of buffer and 15 μL of test compound in DMSO (0.15 mM). The plate was vortexed for 10 seconds and incubated at room temperature for 1 hr on a plate shaker at 200 rpm. After incubation, the samples were allowed to equilibrate for 20 min and then centrifuged at 4000 rpm for 30 min for complete phase separation. The distribution of test compound in buffer and octanol phase was analyzed by HPLC-UV. Log D=Log (Area of Octanol/Area of Buffer)

[4] = In vitro % Fu, human plasma; assay type: in vitro ADME; details: read-out: In Vitro % Fu (Hu Plasma)
[5] = In vitro % Fu, mouse plasma; assay type: in vitro ADME; details: read-out: In Vitro % Fu (Mo Plasma)
[6] = In vivo pharmacokinetics, oral; details: male C57 BL/6 mice
Protocol: The in vivo pharmacokinetic properties of Compound 1 by both intravenous and oral administration were evaluated in male C57 BL/6 mice. The in vivo pharmacokinetic properties of Compound 2 by both intravenous and oral administration were evaluated in male C57 BL/6 mice for comparison.
Animals were housed in cages with clean bedding. Certified rodent diet was provided. Water was available ad libitum. Environmental controls for the animal room were set to maintain a temperature of 22 to 25° C., humidity of 40-70% RH, and a 12-hour light /12-hour dark cycle. Normal healthy animals certified by the attending veterinarian were selected and acclimatized for minimum three days prior to initiation of study.
Procedure for Blood Withdrawal: Mice were anesthetized using gaseous anesthesia. Blood samples were collected through a capillary, guided in retro-orbital plexus. At each time point, blood samples from 3 mice of each respective group were collected. The blood samples were collected in pre-labeled tubes. 0.2 to 0.3 mL of blood were collected from each mouse. After collection of the blood samples at each time point, the samples were stored on ice prior to centrifugation. Blood samples were centrifuged within 15 minutes to separate plasma. Centrifugations was done at 1540 rcf (5000 rpm) at 4° C. for 10 minutes. The plasma was separated and transferred to pre-labeled micro-centrifuge tubes and promptly frozen at −80±10° C. until bioanalysis was performed. Samples were identified by test item, group, animal number, and collection time point.
To evaluate pharmacokinetic properties of oral delivery, nine male C57 BL/6 mice were administered 10 mg Compound 1/kg animal weight by mouth. The concentration of Compound 1 in the plasma of the animals was evaluated at 0.25, 0.5, 1, 2, 4, 6, 8, and 24 hr by taking blood samples. Compound 2 was similarly administered for comparison.

[7] = tested on: K-562; assay: Cancer cell growth inhibition, Sulforhodamine B; assay type: cell-based; details: Homo sapiens, K562; K-562 (hematological), 72 hr; Responder Cell Lines
Method in brief: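 Cells were treated for 72 hr in growth media with compounds from six 10-fold DMSO stock dilutions (10 mM to 0.1 uM stocks), final DMSO 0.1%, single data point per concentration. Growth was measured by Sulforhodamine B protein staining, and IC50, GI50, IC10, TGI, LC50, IC90 and GI90 were derived where calculable.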

[8] = mouse, plasma, oral, dose 10.00 mg/kg (Compound 1), 12.01 mg/kg (Compound 2)

Compound: CC(C)(O)c1cc(-c2csc(-c3ccc(C(=O)N4CCC(O)CC4)cc3Cl)c2)ccn1 [Compound 1, (3-chloro-4-(4-(2-(2-hydroxypropan-2-yl)pyridin-4-yl)thiophen-2-yl)phenyl)(4-hydroxypiperidin-1-yl)methanone]
- solubility kinetic at 24 h [1]: 37 µM (≈ 16.9 µg/mL)
- half-life at 1 µM [2]: 101 min
- logD [3]: 3.38
- fraction unbound [4]: 0.026
- fraction unbound [5]: 0.007
- bioavailability ([6]; mouse, plasma, oral vs intravenous): 59.7%
- AUC(0-inf) [6, 8]: 76300 ng·h/mL
- AUC(0-t) [6, 8]: 71200 ng·h/mL
- Cmax [6, 8]: 7840 ng/mL
- Tmax [6, 8]: 30 min
- half-life [6, 8]: 371 min
- MRT last ([6]; mouse, plasma, oral, dose 10.00 mg/kg (Compound 1), 12.01 mg/kg (Compound 2), read-out: MRT0-last): 7.6 h
- AUCExtra ([6]; oral, dose 10.00 mg/kg (Compound 1), 12.01 mg/kg (Compound 2)): 6.77%
- IC50 [7]: < 10 µM
